PMC9920413, “New Bicyclic Pyridine-Based Hybrids Linked to the 1,2,3-Triazole Unit: Synthesis via Click Reaction and Evaluation of Neurotropic Activity and Molecular Docking” (Molecules, 2023)
Where “and” joins values, the source holds several entries; their conditions need not be identical. Identical values can stand only once.

What was measured:
mice [1] = assay: Rotating rod test (neurotoxicity, myorelaxation); format: in vivo; conditions: i.p., myorelaxation in 50% of animals
Protocol: (§1) The study of the anticonvulsant activity of hybrids 7a–u was assessed by evaluating the antagonism to pentylenetetrazole (PTZ), thiosemicarbazide convulsive seizures, and maximal electroshock-induced seizures (MES). The PTZ-induced test is considered an experimental model for the clonic component of epilepsy seizures and the prognostic anxiolytic activity of the compounds. PTZ is a common convulsive agent used in animal models to investigate the mechanisms of seizures. The model of thiosemicarbazide (TSC) seizures (affecting the exchange of GABA) causes clonic seizures similar to pentylenetetrazole ones. The MES test is used as an animal model for the generalization of tonic seizures in epilepsy. The neurotoxicity and side effects of the compounds (movement coordination disorder, myorelaxation, and ataxia) were also studied on mice with the “rotating rod”[29] test.
(§2) Adverse neurotoxic (muscle relaxant) effects of compounds were studied at doses of 50 to 500 mg/kg when administered intraperitoneally, as well as reference drugs in effect at anticonvulsant doses. Myorelaxation was investigated with the test of a “rotating rod” in mice. To this end, mice were planted on a metal rod with a corrugated rubber coating, which rotated at a speed of 5 revolutions per minute. The number of animals that cnot stay on it for 2 min was determined. To determine the ED50, neurotoxic TD50, and LD50, the statistical method of penetration by Litchfield and Wilcoxon was used.

mice [2] = assay: Forced swimming test; conditions: 50 mg/kg, 6 min; for Total Time of Immobilization: control 42.0 ± 7.24; for Total Time of Active Swimming: control 318.0 ± 8.36;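 for all read-outs here: mice made to swim in a water-filled glass vessel under natural light, with durations of active swimming and immobility recorded across the 6 min session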
Protocol: Forced swimming test. To assess “despair and depression”, the “compelling swimming” model was used. Experimental animals were forced to swim in a glass container (height 22 cm, diameter 14 cm), filled 1/3 with water. […] The latent period of immobilization, the total duration of active swimming and immobilization are fixed at 6 min (the experiments were conducted under natural light).

rats [3] = assay: Electroshock retrograde amnesia, conditioned response of passive avoidance (CRPA); format: in vivo; conditions: 50 mg/kg, study for 5 min; for The Time Spent in the Light Chamber during the Training of the CRPA, First Day: control 280.0 ± 7.5; for The Time Spent in the Light Chamber When Playing CRPA + MESH after 24 h, Second Day: control 281.0 ± 6.1
Protocol: Test for learning and memory. The antiamnesic properties of the compounds were studied using an electroshock amnesia model modified by J. Bures, O. Buresova. In rats, a conditioned passive avoidance reaction (CRPA) to a dark-light setting was developed, while the training of the animals with CRPA was recorded. The residence times in the light and dark compartments were recorded for 5 min (300 s). Then, in the dark compartment, the animal received a single current shock (0.4 mA) through the electrode floor (training). To obtain amnesia, a maximum electroconvulsive seizure is induced in animals (conducting a maximum electric current of 50 Hz for 0.2 s through corneal electrodes). Conducting an electric shock immediately after training causes the erasure of the memory trace. The test for reproduction is carried out 24 h after training—after the development of CRPA. During this period, the control animals forget the training and prefer to be in the dark part of the chamber. An increase in the time spent by rats in the light compartment compared to the control on the second day indicates the presence of antiamnestic properties of the compounds.

mouse = assay: Elevated plus maze (EPM) test; format: in vivo; conditions: 50 mg/kg i.p., 5 min; for Number of Entries into the Closed Arms: control 9.4 ± 1.6; for Time Spent in the Center: control 28.2 ± 3.12; for Time Spent in Closed Arms: control 269.2 ± 10.4
Text: Elevated plus maze—EPM test. Anti-anxiety and sedative effects were studied on mouse a model of the “elevated plus maze”. The labyrinth is a cruciform machine raised above the floor, with a pair of open and closed sleeves opposed to each other. Normal animals prefer to spend most of their time in the closed (dark) sleeves of the labyrinth. The anxiolytic effect of the compounds was estimated by the increase in the number of entries into open (light) sleeves and the time spent in them without increasing the total motor activity. This records the time spent in the closed sleeve and the number of attempts to enter the installation center. In the above model, the test compounds and the reference drug were injected intraperitoneally before the experiments. The control animals were administered as an emulsifier. Results were processed statistically (p < 0.05).

rats [4] = assay: Open field test; format: in vivo; conditions: 50 mg/kg i.p.; for Cells Examination, amount (absolute data during 5 min): control 2.4 ± 0.67; for Vertical Displacement, amount (absolute data during 5 min): control 7.0 ± 2.14; for Horizontal Displacement, amount (absolute data during 5 min): control 21.6 ± 2.25
Protocol: Open field test. The research-motor behavior of rats was studied on a modified “open field” model. For this purpose, an installation was used, the bottom of which is divided into squares with holes (cells). Experiments were performed in the daytime with natural light. Within 5 min of the experiment, the indicators of sedative and activating behavior were determined, namely the number of horizontal movements, standing on the hind legs (vertical movements), and sniffing of the cells. The number of animals on this model was eight for each compound, control, and reference drug.

[5] = system: thiosemicarbazide (TSC)-induced convulsions; assay: Thiosemicarbazide (TSC) seizures; format: in vivo, mice; conditions: mice; for Latency of Convulsions, Induced by TSC, M ± M: compound 100 mg/kg i.p. 45 min before TSC 18 mg/kg s.c.; for Latency of Convulsions, Induced by TSC, I (index of latent period of TSC seizures): compound 100 mg/kg i.p., relative to control = 1.0
Protocol: as §1
Thiosemicarbazide, an antimetabolite of GABA inhibitor (glutamic acid decarboxylase) in the brain, is administered subcutaneously to mice at a dose of 18 mg/kg as a 0.5% solution, which causes clonic convulsions in animals. Anti-thiosemicarbazide activity was evaluated based on the latency time of the onset of seizures. Compounds were administered intraperitoneally at doses of 100 mg/kg in suspension with carboxymethylcellulose and Tween-80 45 min before administration of thiosemicarbazide.

mice [6] = assay: in vivo; conditions: dead animals after 24 h
Protocol: as §2

[7] = system: pentylenetetrazole (PTZ)-induced convulsions; assay: Antagonism to pentylenetetrazole (PTZ) convulsions; format: in vivo; conditions: for TI: therapeutic index TI = LD50/ED50; for ED50 (by PTZ antagonism): mice, i.p. 45 min before PTZ 90 mg/kg s.c., confidence limits in brackets, p = 0.05
Protocol: as §1
The anticonvulsant effect of the newly synthesized compounds was investigated by tests comprising pentylenetetrazole, thiosemicarbazide convulsions, and maximal electroshock (MES). Outbred mice (weight 18–22 g) were used for the study. […] Each animal is placed into an individual plastic cage for observation lasting 1 h. Seizures and clonic convulsions were recorded. […] The control animals were administered as an emulsifier. Every dose of each test compound was studied in six animals.
as §2

6-{4-[(4-{[(4-Cyano-1-isopropyl-5,6,7,8-tetrahydroisoquinolin-3-yl)oxy]methyl}-1H-1,2,3-triazol-1-yl)acetyl]piperazin-1-yl}-3,3-dimethyl-1-propyl-3,4-dihydro-1H-pyrano [3,4-c]pyridine-5-carbonitrile [7i]
TD50 (mice [1]): >500 mg/kg | Total Time of Immobilization (mice [2]): 62.0 ± 5.04 s | Total Time of Active Swimming (mice [2]): 300.0 ± 19.35 s | The Time Spent in the Light Chamber during the Training of the CRPA, First Day (rats [3]): 286.0 ± 6.3 s | The Time Spent in the Light Chamber When Playing CRPA + MESH after 24 h, Second Day (rats [3]): 299.0 ± 6.3 s | Time Spent in the Open Arms (mouse; control 2.6 ± 1.6): 42.0 ± 8.43 s | Number of Entries into the Closed Arms (mouse): 2.2 ± 0.61 | Time Spent in the Center (mouse): 16.0 ± 5.2 s | Time Spent in Closed Arms (mouse): 242.0 ± 16.46 s | Cells Examination, amount (absolute data during 5 min) (rats [4]): 3.4 ± 1.89 | Vertical Displacement, amount (absolute data during 5 min) (rats [4]): 15.0 ± 4.28 | Horizontal Displacement, amount (absolute data during 5 min) (rats [4]): 50.2 ± 5.5 | Latency of Convulsions, Induced by TSC, M ± M [5]: 41.0 ± 1.75 min | Latency of Convulsions, Induced by TSC, I (index of latent period of TSC seizures) [5]: 4.1 | LD50 (mice [6]): 695 (579 ÷ 834) mg/kg | TI [7]: 20.4

6-{4-[(4-{[(4-Cyano-1-isopropyl-5,6,7,8-tetrahydroisoquinolin-3-yl)oxy]methyl}-1H-1,2,3-triazol-1-yl)acetyl]piperazin-1-yl}-1,3,3-trimethyl-3,4-dihydro-1H-pyrano [3,4-c]pyridine-5-carbonitrile [7g]
TD50 (mice [1]): >500 mg/kg | Total Time of Immobilization (mice [2]): 3.0 ± 0.6 s | Total Time of Active Swimming (mice [2]): 357.0 ± 13.5 s | The Time Spent in the Light Chamber during the Training of the CRPA, First Day (rats [3]): 283.0 ± 5.2 s | The Time Spent in the Light Chamber When Playing CRPA + MESH after 24 h, Second Day (rats [3]): 297.0 ± 7.2 s | Time Spent in the Open Arms (mouse; control 2.6 ± 1.6, 50 mg/kg): 6.6 s and 6.6 ± 2.3 s | Number of Entries into the Closed Arms (mouse): 6.0 ± 1.67 | Time Spent in the Center (mouse): 53.4 ± 3.53 s | Time Spent in Closed Arms (mouse): 237.8 ± 12.5 s | Cells Examination, amount (absolute data during 5 min) (rats [4]): 10.0 ± 3.56 | Vertical Displacement, amount (absolute data during 5 min) (rats [4]): 9.0 ± 2.34 | Horizontal Displacement, amount (absolute data during 5 min) (rats [4]): 49.0 ± 7.16 | Latency of Convulsions, Induced by TSC, M ± M [5]: 28.4 ± 0.67 min | Latency of Convulsions, Induced by TSC, I (index of latent period of TSC seizures) [5]: 2.84 | LD50 (mice [6]): 680 (571 ÷ 809) mg/kg | ED50 (by PTZ antagonism) [7]: 18 (10.6 ÷ 30.6) mg/kg | TI [7]: 37.8

6-{4-[(4-{[(5-Cyano-3,3-dimethyl-8-propyl-3,4-dihydro-1H-pyrano [3,4-c]pyridin-6-yl)oxy]methyl}-1H-1,2,3-triazol-1-yl)acetyl]piperazin-1-yl}-1-ethyl-3,3-dimethyl-3,4-dihydro-1H-pyrano [3,4-c]pyridine-5-carbonitrile [7t]
TD50 (mice [1]): >500 mg/kg | Total Time of Immobilization (mice [2]): 62.0 ± 6.77 s | Total Time of Active Swimming (mice [2]): 298.0 ± 16.64 s | Time Spent in the Open Arms (mouse; control 2.6 ± 1.6): 23.0 ± 5.51 s | Number of Entries into the Closed Arms (mouse): 1.6 ± 0.67 | Time Spent in the Center (mouse): 9.0 ± 2.2 s | Time Spent in Closed Arms (mouse): 268.0 ± 5.56 s | Cells Examination, amount (absolute data during 5 min) (rats [4]): 2.6 ± 0.79 | Vertical Displacement, amount (absolute data during 5 min) (rats [4]): 10.6 ± 3.84 | Horizontal Displacement, amount (absolute data during 5 min) (rats [4]): 46.0 ± 7.37 | Latency of Convulsions, Induced by TSC, M ± M [5]: 43.8 ± 4.34 min | Latency of Convulsions, Induced by TSC, I (index of latent period of TSC seizures) [5]: 4.38 | LD50 (mice [6]): 768 (640 ÷ 922) mg/kg | ED50 (by PTZ antagonism) [7]: 30 (24.2 ÷ 42) mg/kg | TI [7]: 25.6

6-{4-[(4-{[(4-Cyano-1-methyl-5,6,7,8-tetrahydroisoquinolin-3-yl)oxy]methyl}-1H-1,2,3-triazol-1-yl)acetyl]piperazin-1-yl}-3,3-dimethyl-1-propyl-3,4-dihydro-1H-pyrano [3,4-c]pyridine-5-carbonitrile [7f]
TD50 (mice [1]): >500 mg/kg | Total Time of Immobilization (mice [2]): 66.0 ± 4.48 s | Total Time of Active Swimming (mice [2]): 296.0 ± 16.85 s | Time Spent in the Open Arms (mouse; control 2.6 ± 1.6): 16.0 ± 2.09 s | Number of Entries into the Closed Arms (mouse): 3.0 ± 0.89 | Time Spent in the Center (mouse): 22.0 ± 6.32 s | Time Spent in Closed Arms (mouse): 264.0 ± 13.48 s | Cells Examination, amount (absolute data during 5 min) (rats [4]): 3.2 ± 1.03 | Vertical Displacement, amount (absolute data during 5 min) (rats [4]): 10.8 ± 3.67 | Horizontal Displacement, amount (absolute data during 5 min) (rats [4]): 39.2 ± 4.92 | Latency of Convulsions, Induced by TSC, M ± M [5]: 40.6 ± 1.11 min | Latency of Convulsions, Induced by TSC, I (index of latent period of TSC seizures) [5]: 4.06 | LD50 (mice [6]): 810 (686 ÷ 956) mg/kg | ED50 (by PTZ antagonism) [7]: 28 (22.2 ÷ 35.3) mg/kg | TI [7]: 28.9
